In PMC10663516 (Scientific Reports, 2023):

Legend:
[1] = set-up: method as in PMID 29241979; conditions: phase 2 MCL study; cited from earlier work
Tolerability in mice = format: in vivo; conditions: same strain as efficacy studies, 30 mg/kg QD PO, unpublished observations
Method: For acalabrutinib, the current clinically recommended oral dose in MCL is 100 mg twice daily (BID)[18],[19], which results in an exposure of 1111 h·ng/mL[18],[19]. There are no published data on the pharmacokinetics of acalabrutinib in mice. The compound was administered at 15 mg/kg BID in mouse xenograft tumor models, giving a total daily dose of 30 mg/kg.

[2] = set-up: method as in PMID 20615965; conditions: mice, oral, 14.2 mg/kg; cited from earlier work
GCB-DLBCL cell lines = assay: Cell viability, ATPlite, GCB-DLBCL panel; format: cell-based; conditions: Homo sapiens; all GCB-DLBCL cell lines, 72 h; read-out: IC50s in GCB-DLBCL cell lines
Method: (§1) The potency of TL-895 effects on cell viability was further examined in vitro in a panel of diffuse large B-cell lymphoma (DLBCL) and MCL cell lines, comprising ten germinal B-cell like subtype (GCB)-DLBCL cell lines, six activated B-cell like (ABC)-DLBCL cell lines, and six MCL cell lines (Horizon Discovery Inc, Cambridge MA, USA). Cells were seeded into 384-well plates (500 cells/well) and incubated (37 °C for 24 h) before treatment with varying concentrations of TL-895 for 72 h. ATP levels were analyzed using the ATPlite Luminescence Assay System (Perkin Elmer, UK). Growth inhibition and maximum response were calculated using the Chalice Analyzer (Horizon Discovery Inc).

[3] = mouse, in vivo, po, 25 mg/kg
TMD8 = assay: Cell viability, ATPlite; format: cell-based, human
Method: as §1

OCI-Ly3 = assay: Cell viability, ATPlite; format: cell-based, human
Method: as §1

HBL-1 = assay: Cell viability, ATPlite; format: cell-based, human
Method: as §1

SU-DHL-2-epst = assay: Cell viability, ATPlite; format: cell-based, human
Method: as §1

BTK [4] = biological target: T1, BTK (Homo sapiens, UniProt Q06187); assay: BTK phosphorylation in Ramos cells after anti-IgM stimulation (ProteinSimple Wes); format: cell-based; set-up: endogenous in cells; host or cells: Ramos Burkitt's lymphoma cells (ATCC CRL-1596)
A431 and A549 = assay: ADCC induced by anti-PD-L1 or anti-EGFR antibody (51Cr release); format: cell-based, human; conditions: A431 and A549 target cells, PBMC effector cells, 4 h; TL-895 0.05 and 3 µM or 8 nM–25 µM
Method: In a second study, ADCC induced by anti-programmed death-ligand 1 (anti-PD-L1) or anti-EGFR antibody was measured using two cultured human tumor cell lines (A431 and A549, target cells; obtained from ATCC). Target cells were stimulated with human interferon-gamma (200 ng/mL) for 48 h to increase surface expression of PD-L1 target protein. Target cell and effector cells (peripheral blood mononuclear cells) were incubated for 4 h with (a) increasing concentrations of antibody (0.2–1000 ng/mL) and TL-895 (0, 0.05 and 3 µM), or (b) a fixed concentration of antibody (20 ng/mL) and increasing concentrations of TL-895 (8 nM–25 µM). ADCC analysis was based on the quantitation of chromium-51 (^51Cr) release during lysis of target cells using […] detection on a MicroBeta2 2450-0060 liquid scintillation and luminescence counter (PerkinElmer, Waltham, MA, USA).

BMX = biological target: T2, BMX (Homo sapiens, UniProt P51813); assay: Millipore Kinase Profiler screening panel, BMX; format: biochemical
T2 construct: purchased EMD Millipore
Method: (§2) The Kinase Profiler™ screening panel (EMD Millipore, Burlington, MA, USA) was used to test the inhibitory activity of TL-895 against 270 protein kinases. Kinases were incubated with TL-895 (1 µM) for 20 min to 4 h at room temperature, according to standard kinome screen procedures. […]

Txk = biological target: T3, Txk (Homo sapiens, UniProt P42681); assay: Millipore Kinase Profiler screening panel, Txk; format: biochemical
T3 construct: purchased EMD Millipore
Method: as §2

BTK [5] = biological target: T1, BTK; assay: Millipore Kinase Profiler screening panel, BTK; format: biochemical; set-up: purchased EMD Millipore; conditions: n = 2
Method: as §2

Pfeiffer = assay: Cell viability, ATPlite; format: cell-based; conditions: Homo sapiens, Pfeiffer (GCB-DLBCL), 72 h
Method: as §1

GRANTA-519 = assay: Cell viability, ATPlite; format: cell-based; conditions: Homo sapiens; GRANTA-519 (MCL), 72 h; read-out: Max response (GI %)
Method: as §1

JVM-2 = assay: Cell viability, ATPlite; format: cell-based; conditions: Homo sapiens, JVM-2 (MCL), 72 h
Method: as §1

DB = assay: Cell viability, ATPlite; format: cell-based; conditions: Homo sapiens; DB (GCB-DLBCL), 72 h; read-out: Max response (GI %)
Method: as §1

Maver-1 = assay: Cell viability, ATPlite; format: cell-based; conditions: Homo sapiens, Maver1, Maver-1 (MCL), 72 h
Method: as §1

Jeko-1 = assay: Cell viability, ATPlite; format: cell-based; conditions: Homo sapiens; Jeko-1 (MCL), 72 h; read-out: Max response (GI %)
Method: as §1

[6] = Homo sapiens, TMD8 (ABC-DLBCL), 72 h
[7] = Homo sapiens, HBL1, HBL-1 (ABC-DLBCL), 72 h

T1 sequence (Q06187 whole entry): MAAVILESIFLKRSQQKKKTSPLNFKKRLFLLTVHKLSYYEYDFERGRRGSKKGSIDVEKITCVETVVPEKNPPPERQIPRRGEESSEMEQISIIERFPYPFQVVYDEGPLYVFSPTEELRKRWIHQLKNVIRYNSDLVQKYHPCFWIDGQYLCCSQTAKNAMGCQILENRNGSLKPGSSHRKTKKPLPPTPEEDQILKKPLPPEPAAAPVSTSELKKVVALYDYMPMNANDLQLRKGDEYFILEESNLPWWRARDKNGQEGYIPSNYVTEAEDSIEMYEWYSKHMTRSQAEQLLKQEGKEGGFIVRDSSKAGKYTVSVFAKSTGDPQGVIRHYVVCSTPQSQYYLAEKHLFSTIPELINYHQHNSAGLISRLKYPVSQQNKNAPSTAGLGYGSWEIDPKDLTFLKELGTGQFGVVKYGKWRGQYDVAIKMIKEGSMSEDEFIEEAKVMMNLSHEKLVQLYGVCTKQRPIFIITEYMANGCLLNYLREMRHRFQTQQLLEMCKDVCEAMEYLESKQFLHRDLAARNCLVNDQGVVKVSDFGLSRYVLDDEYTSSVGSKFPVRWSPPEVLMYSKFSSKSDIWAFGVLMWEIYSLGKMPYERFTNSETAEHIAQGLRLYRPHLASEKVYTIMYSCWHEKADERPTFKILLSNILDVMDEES
T2 sequence (P51813 whole entry): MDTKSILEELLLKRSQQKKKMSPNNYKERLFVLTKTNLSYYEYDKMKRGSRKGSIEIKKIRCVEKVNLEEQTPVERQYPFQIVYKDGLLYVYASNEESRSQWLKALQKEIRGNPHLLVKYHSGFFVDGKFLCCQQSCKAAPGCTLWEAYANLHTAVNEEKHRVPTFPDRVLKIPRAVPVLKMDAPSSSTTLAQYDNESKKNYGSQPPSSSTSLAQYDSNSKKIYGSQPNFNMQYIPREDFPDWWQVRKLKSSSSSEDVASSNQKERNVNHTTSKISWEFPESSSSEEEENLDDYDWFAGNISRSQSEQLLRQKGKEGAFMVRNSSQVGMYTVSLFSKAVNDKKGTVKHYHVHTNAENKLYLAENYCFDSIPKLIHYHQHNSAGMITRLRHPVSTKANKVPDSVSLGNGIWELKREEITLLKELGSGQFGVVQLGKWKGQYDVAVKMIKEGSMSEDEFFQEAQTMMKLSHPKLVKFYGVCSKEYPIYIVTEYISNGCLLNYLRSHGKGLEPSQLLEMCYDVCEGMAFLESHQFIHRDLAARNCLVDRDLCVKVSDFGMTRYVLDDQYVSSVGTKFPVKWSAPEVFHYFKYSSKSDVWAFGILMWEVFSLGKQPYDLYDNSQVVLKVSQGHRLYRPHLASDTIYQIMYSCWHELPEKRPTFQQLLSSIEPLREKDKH
T3 sequence (P42681 whole entry): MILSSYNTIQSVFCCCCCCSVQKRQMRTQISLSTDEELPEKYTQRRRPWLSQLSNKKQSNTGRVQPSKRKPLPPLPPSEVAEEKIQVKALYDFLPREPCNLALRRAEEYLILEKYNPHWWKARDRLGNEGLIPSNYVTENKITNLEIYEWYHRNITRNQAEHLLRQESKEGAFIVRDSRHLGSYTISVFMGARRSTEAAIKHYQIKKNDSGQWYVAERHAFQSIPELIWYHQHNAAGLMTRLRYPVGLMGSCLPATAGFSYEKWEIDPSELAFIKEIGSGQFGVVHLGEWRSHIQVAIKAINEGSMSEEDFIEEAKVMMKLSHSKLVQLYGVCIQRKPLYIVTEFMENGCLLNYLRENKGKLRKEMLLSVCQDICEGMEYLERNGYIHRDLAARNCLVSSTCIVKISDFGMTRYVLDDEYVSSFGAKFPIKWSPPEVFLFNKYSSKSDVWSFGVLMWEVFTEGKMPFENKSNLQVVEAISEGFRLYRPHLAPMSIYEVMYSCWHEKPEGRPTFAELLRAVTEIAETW

CC#CC(=O)N1CCC[C@H]1c1nc(-c2ccc(C(=O)Nc3ccccn3)cc2)c2c(N)nccn12 [Acalabrutinib]
Adverse event: diarrhea [1]: 31% | Adverse event: fatigue [1]: 27% | Adverse event: headache [1]: 38% | Grade ≥ 3 adverse event: anemia [1]: 9% | Grade ≥ 3 adverse event: neutropenia [1]: 10% | Grade ≥ 3 adverse event: pneumonia [1]: 5% | Tolerability (Tolerability in mice): no significant tolerability issues

C=CC(=O)N1CCC[C@@H](n2nc(-c3ccc(Oc4ccccc4)cc3)c3c(N)ncnc32)C1 [Ibrutinib]
Exposure [2]: 569 ng·h/mL

C=CC(=O)N1CCC(F)(CNc2ncnc(N)c2-c2ccc(Oc3ccccc3)cc2)CC1 [TL-895]
IC50 (GCB-DLBCL cell lines): > 5000 nM | Exposure relative to that needed for 90–95% target occupancy [3]: 8.5 fold | GI50 (TMD8; [6]): 10 nM | IC50 (TMD8; [6]): 10 nM | Emax (TMD8; Homo sapiens, TMD8 (ABC-DLBCL), 72 h, read-out: Max response (GI %)): 181% | Sensitivity to TL-895 (TMD8; TMD8, mutations in both CD79b and MyD88): sensitive | Emax (OCI-Ly3; Homo sapiens, OCI-Ly3 (ABC-DLBCL), 72 h, read-out: Max response (GI %)): 39% | Sensitivity to TL-895 (OCI-Ly3; OCI-Ly3, MyD88 mutation, CD79 wild-type): unresponsive | Sensitivity to TL-895 (HBL-1; HBL-1, mutations in both CD79b and MyD88): sensitive | GI50 (HBL-1; [7]): 560 nM | IC50 (HBL-1; [7]): 10300 nM | Emax (HBL-1; Homo sapiens, HBL1, HBL-1 (ABC-DLBCL), 72 h, read-out: Max response (GI %)): 89% | Emax (SU-DHL-2-epst; Homo sapiens, SU-DHL-2-epst (ABC-DLBCL), 72 h, read-out: Max response (GI %)): 2% | Sensitivity to TL-895 (SU-DHL-2-epst; SU-DHL-2-epst, MyD88 mutation, CD79 wild-type): unresponsive | IC50 (BTK [4]; 30 min pre-treatment, anti-IgM stimulation, read-out: IC50, BTK auto-phosphorylation at Y223): 1 to 10 nM | Phosphorylation of Y551 on the activation loop (BTK [4]; up to highest tested concentration 1 µM): not inhibited | Effect on ADCC of anti-PD-L1 or anti-EGFR antibodies (concentration–response, maximum cell lysis) (A431 and A549): did not affect the concentration–response or maximum cell lysis when combined with anti-PD-L1 or anti-EGFR antibodies, except at the highest concentrations tested | IC50 (BMX): 5 nM | IC50 (Txk): 62 nM | IC50 (BTK [5]): 18.5 nM | GI50 (Pfeiffer): 19600 nM | IC50 (Pfeiffer): 21000 nM | Emax (Pfeiffer; read-out: Max response (GI %)): 99% | Emax (GRANTA-519): 50% | GI50 (JVM-2): 6810 nM | IC50 (JVM-2): 17900 nM | Emax (JVM-2; read-out: Max response (GI %)): 135% | Emax (DB): 25% | GI50 (Maver-1): 27500 nM | Emax (Maver-1; read-out: Max response (GI %)): 53% | Emax (Jeko-1): 42%
